Assays:
Type in all cases: cell-based
[1] = system: mesenchymal stem cells derived from human bone marrow; assay: Test Example 9: cell proliferation activity (cell viability), CellTiter-Glo
Procedure: (§1) Mesenchymal stem cells derived from human bone marrow or mesenchymal stem cells derived from human umbilical cord matrix (#C-12974, #C-12971 manufactured by Takara Bio Inc.) were suspended in mesenchymal stem cell growth medium 2 (C-28009 manufactured by Takara Bio Inc.) so as to be 2×10^3 cells/90 μL, and seeded on a 96-well cell culture treatment plate (3585 manufactured by Corning Inc.). To the seeded mesenchymal stem cells was added each 10 μL of the compounds of Examples 1 to 8 diluted to 10-fold concentration with the mesenchymal stem cell growth medium 2, and the cells were cultured for 24 hours. Next, according to the following method, the number of living cells was measured using CellTiter-Glo (Registered Trademark) Luminescent Cell Viability Assay (G7570 manufactured by Promega).
(§2) CellTiter-Glo (Registered Trademark) Substrate was dissolved in CellTiter-Glo (Registered Trademark) Buffer. The prepared solution was added to each well with 100 μL/well, then, 100 μL thereof was apportioned to a 96-well cell culture treatment white plate (356701 manufactured by Corning Inc.), and luminescence was measured with Enspire (manufactured by PerkinElmer). A relative value when the compound untreated group (control) was set to 1 was calculated.

[2] = system: mesenchymal stem cells derived from human umbilical cord matrix; assay: as above
Procedure: as §1, §2

[3] = system: mesenchymal stem cells derived from human adipose tissue; assay: Test Example 4: cytotoxicity, LDH activity in culture solution
Procedure: Mesenchymal stem cells derived from the human adipose tissue (#C-12977 manufactured by Takara Bio Inc.) were suspended in mesenchymal stem cell growth medium 2 (C-28009 manufactured by Takara Bio Inc.) so as to be 8×10^4 cells/1.8 mL, and seeded on a 6-well cell culture treatment plate (3516 manufactured by Corning Inc.). To the seeded mesenchymal stem cells derived from human adipose tissue was added 200 μL of the compound solution of each of Examples 1 to 8 diluted to 10-fold concentration with the mesenchymal stem cell growth medium 2, or mesenchymal stem cell growth medium alone (control), and after culturing for 24 hours, the culture solution was recovered. The activity of lactate dehydrogenase (LDH) contained in the recovered culture solution was measured by using LDH Cytotoxicity Detection Kit (MK401 manufactured by Takara Bio Inc.) as follows. To a freeze-dried product of Solution A was added 1 mL of purified water to completely dissolve therein, then, 250 μL of Solution A and 11.25 mL of Solution B were mixed to prepare Solution C. To 100 μL of the recovered culture solution was added 100 μL of Solution C, and the mixture was reacted at room temperature for 30 minutes. Absorbance at 490 nm was measured using Enspire (manufactured by PerkinElmer).

[4] = system: mesenchymal stem cells derived from human adipose tissue; assay: Test Example 3: promotion of secretion of extracellular vesicles, PS Capture exosome ELISA (anti-CD63); conditions: 24 hours, absorbance 450 nm minus 620 nm
Procedure: Mesenchymal stem cells derived from the human adipose tissue (#C-12977 manufactured by Takara Bio Inc.) were suspended in mesenchymal stem cell growth medium 2 (C-28009 manufactured by Takara Bio Inc.) so as to be 8×10^4 cells/1.8 mL, and seeded on a 6-well cell culture treatment plate (3516 manufactured by Corning Inc.). To the seeded mesenchymal stem cells derived from human adipose tissue was added 200 μL of the compound solution of each of Examples 1 to 8 diluted to 10-fold concentration with the mesenchymal stem cell growth medium 2, or mesenchymal stem cell growth medium alone (control), and after culturing for 24 hours, the culture solution was recovered. Subsequently, the recovered culture solution was centrifuged by 20,000×g at 4° C. for 60 minutes to prepare a culture solution from which cell fragments and Large Extracellular Vesicles were removed. For the detection of the extracellular vesicles, PS Capture (trademark) exosome ELISA kit (anti-mouse IgG POD) (#297-79201 manufactured by FUJIFILM Wako Pure Chemical Corporation) was used.
To Reaction/Washing Buffer (10×) diluted 10-fold with purified water was added 1/100 amount of Exosome Binding Enhancer (100×) to prepare a Reaction/Washing Buffer (1×). The culture solution prepared as mentioned above was diluted 5-fold with the Reaction/Washing Buffer (1×). After washing the Exosome Capture 96-well plate with 300 μL of the Reaction/Washing Buffer (1×) three times, 5-fold diluted each of the culture solution or mesenchymal stem cell growth medium alone in which no cell was cultured was added to each well, and the mixture was reacted at room temperature for 2 hours while shaking with a microplate shaker. After completion of the reaction, the reaction mixture was discarded, and after washing each well with 300 μL of the Reaction/Washing Buffer (1×) three times, 100 μL of Primary Antibody Anti-CD63 (×100) diluted 1,000-fold with the Reaction/Washing Buffer (1×) was added thereto, and the mixture was reacted at room temperature for 1 hour while shaking with a microplate shaker. After completion of the reaction, the reaction mixture was discarded, and after washing each well with 300 μL of the Reaction/Washing Buffer (1×) three times, 100 μL of the Secondary Antibody HRP-conjugated Anti-mouse IgG (100×) diluted 1,000-fold with the Reaction/Washing Buffer (1×) was added thereto, and the mixture was reacted at room temperature for 1 hour while shaking with a microplate shaker. After completion of the reaction, the reaction mixture was discarded, and after washing each well with 300 μL of the Reaction/Washing Buffer (1×) five times, 100 μL of TMB Solution was added, and after shaking for 1 minute with a microplate shaker, the mixture was reacted at room temperature for 30 minutes. After completion of the reaction, 100 μL of Stop Solution was added thereto, and after shaking with a microplate shaker for 5 seconds, the absorbance at 450 nm and 620 nm was measured with Enspire (manufactured by PerkinElmer), and the absorbance at 620 nm was subtracted from the absorbance at 450 nm for each well.

[5] = system: 293 cells; assay: Test Example 13: cell proliferation activity, Cell Count Reagent SF
Procedure: (§3) After 30 minutes, absorbance at 450 nm was measured to evaluate cell proliferation activity.

[6] = system: 293T cells; assay: as above
Procedure: as §3

[7] = Table 4, 2 μM, 24 hours, LDH, absorbance at 490 nm
[8] = 2 μM, 24 hours, CellTiter-Glo, control set to 1
[9] = 20 nM, 24 hours, CellTiter-Glo, control set to 1
[10] = concentration of at least about 0.03 μM (30 nM) or less
[11] = concentration of at least about 0.3 μM or less
[12] = Table 4, 50 nM, 24 hours, LDH, absorbance at 490 nm

Row | SMILES | Absorbance [3, 7] | Difference in absorbance ([4]; Table 2, 2 μM) | Relative value of luminescence [1, 8] | Relative value of luminescence [2, 8] | Relative value of luminescence [1, 9] | Relative value of luminescence [2, 9] | further results
1 | Cc1cc2c(C(C)C)c(O)c(O)c(C=O)c2c(O)c1-c1c(C)cc2c(C(C)C)c(O)c(O)c(C=O)c2c1O [Example 4, (R)-(−)-Gossypol] | 1.20 | 1.51 | – | – | – | – | Relative value of luminescence ([1]; human, 24 h, 2 μM): 0.86; Relative value of luminescence ([2]; human, 24 h, 2 μM): 0.92
2 | Cc1cc2c(C(=O)NC[C@H](C)c3ccccc3)c(O)c(O)cc2c(O)c1-c1c(C)cc2c(C(=O)NC[C@H](C)c3ccccc3)c(O)c(O)cc2c1O [Example 8, Sabutoclax] | 1.18 | 1.41 | 0.93 | 1.00 | – | – | –
3 | COC1=CC(c2cc3ccccc3[nH]2)=N/C1=C\c1[nH]c(C)cc1C.CS(=O)(=O)O [Example 5, Obatoclax Mesylate] | – | – | – | – | 0.96 | 0.84 | effect on the proliferative activity [5, 10]: do not significantly affect; effect on the proliferative activity [6, 10]: do not significantly affect; Absorbance ([3]; Table 3, 50 nM, 24 hours, LDH, absorbance at 490 nm): 1.14; Difference in absorbance ([4]; Table 1, 50 nM): 2.27
4 | Cc1cc2c(C(C)C)c(O)c(O)cc2c(O)c1-c1c(C)cc2c(C(C)C)c(O)c(O)cc2c1O [Example 3, (+)-Apogossypol] | – | 1.33 | – | – | – | – | Relative value of luminescence ([1]; human, 24 h, 2 μM): 1.00; Relative value of luminescence ([2]; human, 24 h, 2 μM): 1.01; Absorbance ([3]; human, 24 h, 2 μM): 1.02
5 | CC(=O)O.Cc1cc2c(C(C)C)c(O)c(O)c(C=O)c2c(O)c1-c1c(C)cc2c(C(C)C)c(O)c(O)c(C=O)c2c1O (racemic) [Example 1, (±)-Gossypol Acetate] | 0.73 | 1.97 | 0.91 | 0.97 | – | – | effect on the proliferative activity [5, 11]: do not significantly affect; effect on the proliferative activity [6, 11]: do not significantly affect; Absorbance ([3]; Table 3, 2 μM, 24 hours, LDH, absorbance at 490 nm): 1.08; Difference in absorbance ([4]; Table 1, 2 μM): 2.15
6 | CCCCCC1=C/C(=C\c2[nH]c(-c3ccc[nH]3)cc2OC)N=C1C.Cl [Example 6, Prodigiosin Hydrochloride] | – | – | – | – | 0.92 | 0.78 | Absorbance [3, 12]: 1.02; Difference in absorbance ([4]; Table 2, 50 nM): 2.38
7 | CCCCCCCCCCCc1ccc(/C=C2\N=C(c3ccc[nH]3)C=C2OC)[nH]1.Cl [Example 7, Undecylprodigiosin Hydrochloride] | – | – | – | – | 0.82 | 0.82 | Absorbance [3, 12]: 1.02; Difference in absorbance ([4]; Table 2, 50 nM): 1.88
8 | CC(=O)O.Cc1cc2c(C(C)C)c(O)c(O)c(C=O)c2c(O)c1-c1c(C)cc2c(C(C)C)c(O)c(O)c(C=O)c2c1O [Example 2, (S)-Gossypol Acetate] | 1.02 | 1.79 | 0.96 | 0.97 | – | – | –

From patent US20220162561A1, “COMPOSITION FOR PROMOTING SECRETION OF EXTRACELLULAR VESICLES” (priority 2019, published 2022)
